Source: patent publication US20030212254A1, “Use of an anion exchange resin (emp-7) as solid support for peptide synthesis and affinity chromatography” (priority 1999, published 2003)

Test system: monoclonal antibody specific for (NANP)3 / recombinant protein containing the repetitive domain (NANP)n interaction
Test: Inhibition ELISA: inhibition of the monoclonal antibody-recombinant protein interaction
Type: binding, mouse
Settings: 2000 to 3,9 μg/ml peptide or peptide-resin; 2 h at room temperature; absorbance at 492 nm; FIG. 6
Method: In brief, the designed immunological experiment encompassed the following steps: the purified recombinant protein containing the repetitive domain (NANP)n of the circunsporozoite form of Plasmodium falciparum (v.g. Cell, 70, 1021-1033, [1992]) was added to Elisa's plate (200 ng/well) and maintained overnight at room temperature. After 3 washes with phosphate buffer containing 0,05% Tween-20, the plates were treated at 37° C. with PBS containing 5% disnatured milk and 1% serum bovine albumin. To calculate the degree of interaction of this recombinant protein with its antibody, the plates were treated with a specific monoclonal antibody for the (NANP)3 sequence obtained according to the reference in Science 228, 1436-1440 (1985), in a final concentration of 20 ng/ml. […] After 1 h of incubation at room temperature, the excess of labeled antibody was removed during the washings and the calorimetric reaction with o-phenilenediamine was developed and read at 492 nm. […]
100 μl of PBS were added to 2000 μg/ml to 3,9 μg/ml of free peptide (acetyl-NANP)3 or of {[(acetil-NANP)3]4-Eac4-(Lys)2-Lys-DEAE-Sephadex A50}resin. […] The absorbance of solutions was measured at 492 nm and the percentage of inhibition of this interaction antibody-recombinant protein induced by peptide-resin, resin or peptide was calculated according to the equation: […]

In the case of acetyl-(NANP)3 [free (acetyl-NANP)3], the “inhibition of the antibody-recombinant protein interaction” value is reported as “highest inhibition”.
